Reference: ChEMBL document CHEMBL4004868, “Synthesis and in vitro biological evaluation of novel quinazoline derivatives” (Bioorg Med Chem Lett, 2017)
Calls of active or inactive are those of the source. The calls are words filed in the database; no cut-off is given here.

Columns and labels:
A549 [1] = assay: Cytotoxicity against human A549 cells assessed as decrease in cell viability after 72 hrs by MTT assay; type: functional
A-431 = assay: Cytotoxicity against human A431 cells assessed as decrease in cell viability after 72 hrs by MTT assay; type: functional
NCI-H1975 = assay: Cytotoxicity against human NCI-H1975 cells assessed as decrease in cell viability after 72 hrs by MTT assay; type: functional
SW480 = assay: Cytotoxicity against human SW480 cells assessed as decrease in cell viability after 72 hrs by MTT assay; type: functional
[2] = target: T1, Epidermal growth factor receptor (Homo sapiens, UniProt P00533); assay: Inhibition of wild type recombinant EGFR (unknown origin) using poly (Glu,Tyr) 4:1 as substrate after 60 mins by ELISA
[3] = target: T1, Epidermal growth factor receptor; assay: Inhibition of EGFR in human NCI-H1975 cells assessed as decrease in Akt phosphorylation at S473 at 50 uM preincubated for 2 hrs followed by EGF induction measured after 10 mins by Western blot method; type: cell-based
[4] = target: T1, Epidermal growth factor receptor; assay: Inhibition of EGFR phosphorylation at Y1068 in human NCI-H1975 cells at 50 uM preincubated for 2 hrs followed by EGF induction measured after 10 mins by Western blot method; type: cell-based
[5] = target: T1, Epidermal growth factor receptor; assay: Inhibition of EGFR in human A549 cells assessed as decrease in ERK1/2 phosphorylation at T202/204 at 1 uM preincubated for 2 hrs followed by EGF induction measured after 10 mins by Western blot method; type: cell-based
[6] = target: T1, Epidermal growth factor receptor; assay: Inhibition of EGFR in human A549 cells assessed as decrease in Akt phosphorylation at S473 at 1 uM preincubated for 2 hrs followed by EGF induction measured after 10 mins by Western blot method; type: cell-based
[7] = target: T1, Epidermal growth factor receptor; assay: Inhibition of EGFR phosphorylation at Tyr residue in human A549 cells at 1 uM preincubated for 2 hrs followed by EGF induction measured after 10 mins by Western blot method; type: cell-based
A549 [8] = assay: Effect on total Erk levels in human A549 cells at 1 to 50 uM after 2 hrs by Western blot method; type: ADME, cell-based; settings: a549, 2 h
[9] = target: T1, Epidermal growth factor receptor; assay: Inhibition of EGFR phosphorylation at Y1068 in human A549 cells at 1 uM preincubated for 2 hrs followed by EGF induction measured after 10 mins by Western blot method; type: cell-based
[10] = target: T1, Epidermal growth factor receptor; assay: Inhibition of EGFR phosphorylation at Tyr residue in human NCI-H1975 cells at 50 uM preincubated for 2 hrs followed by EGF induction measured after 10 mins by Western blot method; type: cell-based
A549 [11] = assay: Effect on total GAPDH levels in human A549 cells at 1 to 50 uM after 2 hrs by Western blot method; type: ADME, cell-based; settings: a549, 2 h
A549 [12] = assay: Effect on total EGFR levels in human A549 cells at 1 to 50 uM after 2 hrs by Western blot method; type: ADME, cell-based; settings: a549, 2 h
[13] = target: T1, Epidermal growth factor receptor; assay: Inhibition of EGFR in human NCI-H1975 cells assessed as decrease in Erk1/2 phosphorylation at T202/204 at 50 uM preincubated for 2 hrs followed by EGF induction measured after 10 mins by Western blot method; type: cell-based
A549 [14] = assay: Effect on total Akt levels in human A549 cells at 1 to 50 uM after 2 hrs by Western blot method; type: ADME, cell-based; settings: a549, 2 h

T1 sequence (P00533 whole entry): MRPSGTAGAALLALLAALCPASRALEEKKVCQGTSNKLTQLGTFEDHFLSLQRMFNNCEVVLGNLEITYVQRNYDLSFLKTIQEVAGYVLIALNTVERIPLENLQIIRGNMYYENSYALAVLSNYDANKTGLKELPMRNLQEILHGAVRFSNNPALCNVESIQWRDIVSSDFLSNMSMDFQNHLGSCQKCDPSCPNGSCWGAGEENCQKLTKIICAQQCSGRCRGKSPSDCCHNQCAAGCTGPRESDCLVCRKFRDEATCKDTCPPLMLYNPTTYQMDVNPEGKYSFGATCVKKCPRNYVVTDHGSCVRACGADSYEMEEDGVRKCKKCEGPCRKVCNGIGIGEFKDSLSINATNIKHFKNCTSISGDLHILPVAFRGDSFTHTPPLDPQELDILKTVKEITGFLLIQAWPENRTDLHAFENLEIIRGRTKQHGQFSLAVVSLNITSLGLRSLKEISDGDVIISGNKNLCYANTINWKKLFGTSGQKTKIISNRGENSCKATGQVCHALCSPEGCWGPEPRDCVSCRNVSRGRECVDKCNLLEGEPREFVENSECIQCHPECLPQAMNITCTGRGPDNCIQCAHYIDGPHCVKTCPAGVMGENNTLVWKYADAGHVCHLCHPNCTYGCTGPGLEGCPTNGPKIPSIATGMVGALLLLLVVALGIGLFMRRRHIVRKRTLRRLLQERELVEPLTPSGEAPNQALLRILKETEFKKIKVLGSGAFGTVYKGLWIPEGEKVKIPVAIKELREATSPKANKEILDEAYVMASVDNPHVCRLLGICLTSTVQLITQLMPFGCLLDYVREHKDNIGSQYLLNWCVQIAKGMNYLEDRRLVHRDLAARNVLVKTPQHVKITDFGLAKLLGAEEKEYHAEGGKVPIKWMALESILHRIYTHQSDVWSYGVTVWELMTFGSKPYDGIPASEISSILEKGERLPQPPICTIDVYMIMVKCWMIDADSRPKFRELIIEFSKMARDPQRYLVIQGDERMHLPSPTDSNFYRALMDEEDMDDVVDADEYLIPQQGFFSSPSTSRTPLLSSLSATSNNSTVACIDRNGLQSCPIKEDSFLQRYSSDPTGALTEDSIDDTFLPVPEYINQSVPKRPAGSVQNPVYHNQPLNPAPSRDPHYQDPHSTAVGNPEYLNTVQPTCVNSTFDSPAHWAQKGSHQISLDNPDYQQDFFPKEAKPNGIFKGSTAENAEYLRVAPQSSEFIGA

Work on C#Cc1cccc(Nc2ncnc3ccc(-c4ccc(CO)o4)cc23)c1 yielded an IG50 (A549 [1]) of over 100 µM, an IG50 (A-431) of 3.21 µM and an IG50 (NCI-H1975) of over 100 µM. For the same compound, the IG50 (SW480) was over 100 µM and the IC50 [2] was 15.7 nM.
C/C=C/c1ccc(Nc2ncnc3ccc(-c4ccc(CO)o4)cc23)cc1 gave an IG50 (A549 [1]) of 38.24 µM, an IG50 (A-431) of 21.43 µM and an IG50 (NCI-H1975) of 37.93 µM. It also gave an IG50 (SW480) of 51.25 µM.
OCc1ccc(-c2ccc3ncnc(Nc4ccc(F)c(Cl)c4)c3c2)o1 showed an IG50 (A549 [1]) of over 100 µM, an IG50 (A-431) of 3.91 µM and an IG50 (NCI-H1975) of over 100 µM. The IG50 (SW480) was over 100 µM.
In the case of CC(=O)OCc1ccc(-c2ccc3ncnc(Nc4ccc(OCc5cccc(F)c5)c(Cl)c4)c3c2)o1, the IG50 (A549 [1]) is reported as 5.49 µM, the IG50 (A-431) is reported as 8.33 µM and the IG50 (NCI-H1975) is reported as 6.78 µM. For the same compound, the IG50 (SW480) was 5.18 µM.
C/C=C/c1ccc(Nc2ncnc3ccc(-c4ccc(CNCCS(C)(=O)=O)o4)cc23)cc1 was tested, and the IG50 (A549 [1]) was 84.5 µM, the IG50 (A-431) was 37.56 µM and the IG50 (NCI-H1975) was over 100 µM. For the same compound, the IG50 (SW480) was 56.34 µM.
For C#Cc1cccc(Nc2ncnc3ccc(-c4ccc(CNCCS(C)(=O)=O)o4)cc23)c1, the IG50 (A549 [1]) was 11.35 µM, the IG50 (A-431) was 5.78 µM and the IG50 (NCI-H1975) was 14.92 µM. The IG50 (SW480) was 13.38 µM.
CC(=O)OCc1ccc(-c2ccc3ncnc(Nc4ccc(F)c(Cl)c4)c3c2)o1 gave an IG50 (A549 [1]) of over 100 µM, an IG50 (A-431) of 10.75 µM and an IG50 (NCI-H1975) of 54.13 µM. For the same compound, the IG50 (SW480) was 43.18 µM.
With CS(=O)(=O)CCNCc1ccc(-c2ccc3ncnc(Nc4ccc(OCc5cccc(F)c5)c(Cl)c4)c3c2)o1 [LAPATINIB] the IG50 (A549 [1]) was 14.9 µM, the IG50 (A-431) was 4.8 µM and the IG50 (NCI-H1975) was 9.08 µM. For the same compound, the IG50 (SW480) was 12.58 µM.
For C#Cc1cccc(Nc2ncnc3ccc(-c4ccc(COC(C)=O)o4)cc23)c1, the IG50 (A549 [1]) was 4.05 µM, the IG50 (A-431) was 1.28 µM and the IG50 (NCI-H1975) was 5.4 µM. It also gave an IG50 (SW480) of 14.97 µM.
With C/C=C/c1ccc(Nc2ncnc3ccc(-c4ccc(COC(C)=O)o4)cc23)cc1 the IG50 (A549 [1]) was 20.61 µM, the IG50 (A-431) was 5.53 µM and the IG50 (NCI-H1975) was 40.85 µM. For the same compound, the IG50 (SW480) was 11.18 µM.
CS(=O)(=O)CCNCc1ccc(-c2ccc3ncnc(Nc4ccc(F)c(Cl)c4)c3c2)o1 was tested, and the IG50 (A549 [1]) was over 100 µM, the IG50 (A-431) was 39.34 µM and the IG50 (NCI-H1975) was 83.61 µM. For the same compound, the IG50 (SW480) was 60.59 µM and the IC50 [2] was 24 nM.
For OCc1ccc(-c2ccc3ncnc(Nc4ccc(OCc5cccc(F)c5)c(Cl)c4)c3c2)o1, the IG50 (A549 [1]) was 7.35 µM, the inhibition [3] was “Active” and the inhibition [4] was “Active”. For the same compound, the inhibition [5] was “Active”, the inhibition [6] was “Active” and the inhibition [7] was “Active”. For the same compound, the IG50 (A-431) was 3.64 µM, the Activity (A549 [8]) was “Non-Toxic” and the IG50 (NCI-H1975) was 3.01 µM. The IG50 (SW480) was 5.58 µM, the inhibition [9] was “Active” and the inhibition [10] was “Active”. The Activity (A549 [11]) was “Non-Toxic”, the Activity (A549 [12]) was “Non-Toxic” and the IC50 [2] was 5.06 nM. For the same compound, the inhibition [13] was “Active” and the Activity (A549 [14]) was “Non-Toxic”.
